Tests used:
HDAC6 = target: T1, HDAC6 (Homo sapiens, UniProt Q9UBN7); test: Histone deacetylase activity, continuous trypsin-coupled assay; format: biochemical; settings: trypsin-coupled fluorescence assay, acetyl-Gly-Ala-(N-acetyl-Lys)-AMC substrate
T1 sequence (Q9UBN7 1-1215): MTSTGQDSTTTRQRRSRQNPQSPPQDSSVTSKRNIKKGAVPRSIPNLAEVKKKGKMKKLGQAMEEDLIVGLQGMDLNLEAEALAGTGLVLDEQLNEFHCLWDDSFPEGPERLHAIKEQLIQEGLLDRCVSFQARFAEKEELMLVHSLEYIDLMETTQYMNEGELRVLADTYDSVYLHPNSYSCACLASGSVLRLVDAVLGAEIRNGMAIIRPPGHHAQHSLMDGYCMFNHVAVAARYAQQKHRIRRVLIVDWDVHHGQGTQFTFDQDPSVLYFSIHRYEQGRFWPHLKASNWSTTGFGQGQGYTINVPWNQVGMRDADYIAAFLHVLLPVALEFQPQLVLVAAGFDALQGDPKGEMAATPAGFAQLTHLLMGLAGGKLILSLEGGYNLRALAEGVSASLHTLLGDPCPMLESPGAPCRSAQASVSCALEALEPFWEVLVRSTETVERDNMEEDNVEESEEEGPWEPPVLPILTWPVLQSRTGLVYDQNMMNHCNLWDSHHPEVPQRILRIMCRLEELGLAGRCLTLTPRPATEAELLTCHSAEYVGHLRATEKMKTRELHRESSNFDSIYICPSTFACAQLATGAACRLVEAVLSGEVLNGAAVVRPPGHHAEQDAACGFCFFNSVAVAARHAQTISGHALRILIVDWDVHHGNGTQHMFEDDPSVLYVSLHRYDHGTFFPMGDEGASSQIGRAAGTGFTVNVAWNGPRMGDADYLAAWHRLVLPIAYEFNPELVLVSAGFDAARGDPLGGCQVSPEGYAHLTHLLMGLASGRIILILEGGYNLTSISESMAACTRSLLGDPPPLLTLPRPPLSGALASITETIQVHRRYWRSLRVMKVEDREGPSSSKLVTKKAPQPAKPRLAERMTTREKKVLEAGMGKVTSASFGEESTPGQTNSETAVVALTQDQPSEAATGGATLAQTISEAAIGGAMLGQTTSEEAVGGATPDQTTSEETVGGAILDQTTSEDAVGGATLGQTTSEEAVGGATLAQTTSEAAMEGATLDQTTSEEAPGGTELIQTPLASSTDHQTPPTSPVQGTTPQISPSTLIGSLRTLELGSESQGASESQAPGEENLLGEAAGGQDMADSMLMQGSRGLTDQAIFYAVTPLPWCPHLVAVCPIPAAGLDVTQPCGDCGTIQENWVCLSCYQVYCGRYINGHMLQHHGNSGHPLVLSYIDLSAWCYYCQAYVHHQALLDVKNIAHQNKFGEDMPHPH
Method: (§1) HDAC activity is measured using a continuous trypsin-coupled assay that has been described in detail previously (US 20070281934; Schultz et. al., Biochemistry, 43 (34), 11083-11091, 2004; Kim et al. (2006), Methods Mol. Biol., 325:273-283). For inhibitor characterization, measurements are performed in a reaction volume of 100 µL using 96-well assay plates in a fluorescence plate reader. For each isozyme, the HDAC protein in reaction buffer (50 mM HEPES, 100 mM KCl, 0.001% Tween-20, 5% DMSO, pH 7.4, supplemented with bovine serum albumin at concentrations of 0-0.05%, is mixed with inhibitor at various concentrations and allowed to incubate for 15 minutes. Trypsin is added to a final concentration of 50 nM, and acetyl-Gly-Ala-(N-acetyl-Lys)-AMC is added to a final concentration of 25-100 μM to initiate the reaction. After a 30 minute lag time, the fluorescence is measured over a 30 minute time frame using an excitation wavelength of 355 nm and a detection wavelength of 460 nm. The increase in fluorescence with time is used as the measure of the reaction rate. Inhibition constants Ki(app) were obtained using the program BatchKi (Biokin, Pullman, Wash.).

HDAC8 = target: T2, HDAC8 (Homo sapiens, UniProt Q9BY41); test: as above; format: biochemical; settings: trypsin-coupled fluorescence assay, acetyl-Gly-Ala-(N-acetyl-Lys)-AMC substrate
T2 sequence (Q9BY41 1-377): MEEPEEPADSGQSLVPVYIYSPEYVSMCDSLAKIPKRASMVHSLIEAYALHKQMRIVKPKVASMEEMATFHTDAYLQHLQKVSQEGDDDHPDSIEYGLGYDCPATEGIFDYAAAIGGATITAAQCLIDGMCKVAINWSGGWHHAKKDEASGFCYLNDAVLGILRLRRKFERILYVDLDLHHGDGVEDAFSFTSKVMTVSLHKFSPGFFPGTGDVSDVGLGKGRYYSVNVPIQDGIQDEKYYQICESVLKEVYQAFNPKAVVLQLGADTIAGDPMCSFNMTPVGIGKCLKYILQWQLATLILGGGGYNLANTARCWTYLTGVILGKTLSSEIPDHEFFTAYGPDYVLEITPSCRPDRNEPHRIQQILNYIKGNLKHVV
Method: as §1

HDAC1 = HDAC1 (Homo sapiens, UniProt Q13547); test: as above; format: biochemical; settings: trypsin-coupled fluorescence assay, acetyl-Gly-Ala-(N-acetyl-Lys)-AMC substrate
Method: as §1

Jurkat cells = test: Cell proliferation assay, growth inhibition by Alamar Blue; format: cell-based; settings: Homo sapiens, 72 h, treated with compound for 3 days
Method: Cell lines are obtained from DSMZ (Braunschweig, Germany) or ATCC (Manassas, Va.). Cells are grown in RPMI 1640 with 10% fetal bovine serum in a 5% CO2/air incubator at 37° C. Thapsigargin and BAPTA-AM are from Calbiochem (San Diego, Calif.). 3-((dimethylamino)methyl)-N-(2-(4-(hydroxycarbamoyl)phenoxy)ethyl)benzofuran-2-carboxamide is a broad-spectrum HDAC inhibitor which was synthesized as previously described. Other analogs with varying degrees of specificity towards the HDAC isoforms are synthesized as described herein.
Tumor cell lines and human umbilical vein endothelial cells (HUVEC) are cultured for at least two doubling times, and growth is monitored at the end of compound exposure using an Alamar Blue™ (Biosource, Camarillo, Calif.) fluorometric cell proliferation assay as recommended by the manufacturer. Compounds are assayed in triplicate wells in 96-well plates. The concentration required to inhibit cell growth by 50% (GI50) and 95% confidence intervals are estimated from nonlinear regression using a 4-parameter logistic equation. The effect of HDAC8 selective inhibitor compounds on cell proliferation in Jurkat cells is measured. Apoptosis is measured by Annexin-V flow cytommetry. Growth inhibiton iss measured by Alamar Blue assay. Cells are treated with compound for 3 days.

HDAC1, sequence (Q13547 whole entry): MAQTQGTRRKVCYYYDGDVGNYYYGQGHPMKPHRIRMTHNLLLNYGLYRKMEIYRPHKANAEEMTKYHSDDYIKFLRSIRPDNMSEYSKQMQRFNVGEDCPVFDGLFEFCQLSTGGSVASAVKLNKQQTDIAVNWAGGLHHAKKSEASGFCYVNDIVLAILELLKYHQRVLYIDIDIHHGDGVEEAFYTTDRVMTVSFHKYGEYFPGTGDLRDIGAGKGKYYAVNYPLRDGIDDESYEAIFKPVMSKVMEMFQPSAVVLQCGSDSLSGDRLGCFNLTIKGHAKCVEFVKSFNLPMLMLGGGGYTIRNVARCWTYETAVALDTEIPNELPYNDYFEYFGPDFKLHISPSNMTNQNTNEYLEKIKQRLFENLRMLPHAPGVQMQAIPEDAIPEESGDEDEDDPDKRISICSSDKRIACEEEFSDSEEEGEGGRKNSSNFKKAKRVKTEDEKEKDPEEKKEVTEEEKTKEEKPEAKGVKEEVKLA

With COc1cccc(Oc2ccccc2/C=C/C(=O)NO)c1 [Compound 15, (E)-N-hydroxy-3-(2-(3-methoxyphenoxy)phenyl)acrylamide] the IC50 (HDAC6) was 100 to 1000 nM, the IC50 (HDAC8) was at most 100 nM and the IC50 (HDAC1) was 1000 to 10000 nM. The GI50 (Jurkat cells) was 3370 nM.
Cc1cccc(Oc2ccccc2/C=C/C(=O)NO)c1 [Compound 13, (E)-N-hydroxy-3-(2-(m-tolyloxy)phenyl)acrylamide] showed an IC50 (HDAC6) of 1000 to 10000 nM, an IC50 (HDAC8) of at most 100 nM and an IC50 (HDAC1) of 1000 to 10000 nM. For the same molecule, the GI50 (Jurkat cells) was 2500 nM.
For COc1ccc(Oc2ccccc2/C=C/C(=O)NO)cc1 [Compound 10, (E)-N-hydroxy-3-(2-(4-methoxyphenoxy)phenyl)acrylamide], the IC50 (HDAC6) was 100 to 1000 nM, the IC50 (HDAC8) was at most 100 nM and the IC50 (HDAC1) was 1000 to 10000 nM. For the same molecule, the GI50 (Jurkat cells) was 2250 nM.
In the case of O=C(/C=C/c1ccccc1Oc1ccc(Cl)c(Cl)c1)NO [Compound 12, (E)-3-(2-(3,4-Dichlorophenoxy)phenyl)-N-hydroxyacrylamide], the IC50 (HDAC6) is reported as 1000 to 10000 nM, the IC50 (HDAC8) is reported as at most 100 nM and the IC50 (HDAC1) is reported as 1000 to 10000 nM. The GI50 (Jurkat cells) was 1800 nM.
With O=C(/C=C/c1ccccc1Oc1cccnc1)NO [Compound 16, (E)-N-Hydroxy-3-(2-(pyridin-3-yloxy)phenyl)acrylamide] the IC50 (HDAC6) was 1000 to 10000 nM, the IC50 (HDAC8) was at most 100 nM and the IC50 (HDAC1) was 1000 to 10000 nM. It also gave a GI50 (Jurkat cells) of over 20000 nM.
CC(=O)Nc1ccc(Oc2cccc(Cl)c2)c(/C=C/C(=O)NO)c1 [Compound 42, (E)-3-(5-acetamido-2-(3-chlorophenoxy)phenyl)-N-hydroxyacrylamide] showed an IC50 (HDAC6) of over 10000 nM, an IC50 (HDAC8) of at most 100 nM and an IC50 (HDAC1) of over 10000 nM.
For CN(C)CCOc1ccc(/C=C/C(=O)NO)c(Oc2cccc(Cl)c2)c1 [Compound 69, (E)-3-(2-(3-chlorophenoxy)-4-(2-(dimethylamino)ethoxy)phenyl)-N-hydroxyacrylamide], the IC50 (HDAC6) was 100 to 1000 nM, the IC50 (HDAC8) was at most 100 nM and the IC50 (HDAC1) was 100 to 1000 nM.
Work on O=C(/C=C/c1ccccc1Oc1cccc(Cl)c1)NO [Compound 11, (E)-3-(2-(3-Chlorophenoxy)phenyl)-N-hydroxyacrylamide] yielded an IC50 (HDAC6) of 100 to 1000 nM, an IC50 (HDAC8) of at most 100 nM and an IC50 (HDAC1) of 1000 to 10000 nM. For the same molecule, the GI50 (Jurkat cells) was 1980 nM.
For COCCOc1ccc(/C=C/C(=O)NO)c(Oc2ccc(Cl)c(Cl)c2)c1 [Compound 80, (E)-3-(2-(3,4-dichlorophenoxy)-4-(2-methoxyethoxy)phenyl)-N-hydroxyacrylamide], the IC50 (HDAC6) was 1000 to 10000 nM, the IC50 (HDAC8) was at most 100 nM and the IC50 (HDAC1) was over 10000 nM.
O=C(/C=C/c1ccc(OCCN2CCOCC2)cc1Oc1cccc(Cl)c1)NO [Compound 67, (E)-3-(2-(3-chlorophenoxy)-4-(2-morpholinoethoxy)phenyl)-N-hydroxyacrylamide] was tested, and the IC50 (HDAC6) was 100 to 1000 nM, the IC50 (HDAC8) was at most 100 nM and the IC50 (HDAC1) was 1000 to 10000 nM.
O=C(/C=C/c1ccc(OCc2cccnc2)cc1Oc1cccc(Cl)c1)NO [Compound 59, (E)-3-(2-(3-chlorophenoxy)-4-(pyridin-3-ylmethoxy)phenyl)-N-hydroxyacrylamide] gave an IC50 (HDAC6) of 100 to 1000 nM, an IC50 (HDAC8) of at most 100 nM and an IC50 (HDAC1) of 1000 to 10000 nM.
O=C(/C=C/c1ccccc1Oc1ccc(Cl)cc1)NO [Compound 6, (E)-3-(2-(4-chlorophenoxy)phenyl)-N-hydroxyacrylamide] was tested, and the IC50 (HDAC6) was 1000 to 10000 nM, the IC50 (HDAC8) was at most 100 nM and the IC50 (HDAC1) was 1000 to 10000 nM. It also gave a GI50 (Jurkat cells) of 1430 nM.
O=C(/C=C/c1ccccc1Oc1ccccc1)NO [Compound 7, (E)-N-Hydroxy-3-(2-phenoxyphenyl)acrylamide] showed an IC50 (HDAC6) of 100 to 1000 nM, an IC50 (HDAC8) of at most 100 nM and an IC50 (HDAC1) of 1000 to 10000 nM.
In the case of O=C(/C=C/c1cc(NCc2cccnc2)ccc1Oc1ccc(F)cc1)NO [Compound 49, (E)-3-(2-(4-fluorophenoxy)-5-(pyridin-3-ylmethylamino)phenyl)-N-hydroxyacrylamide], the IC50 (HDAC6) is reported as 1000 to 10000 nM, the IC50 (HDAC8) is reported as at most 100 nM and the IC50 (HDAC1) is reported as over 10000 nM.
Cc1ccc(Oc2ccccc2/C=C/C(=O)NO)cc1 [Compound 8, (E)-3-(2-(p-Tolyloxy)phenyl)-N-hydroxyacrylamide] gave an IC50 (HDAC6) of 100 to 1000 nM, an IC50 (HDAC8) of at most 100 nM and an IC50 (HDAC1) of 1000 to 10000 nM. The GI50 (Jurkat cells) was 6100 nM.
Molecule O=C(/C=C/c1ccccc1Oc1ccc(F)cc1)NO [Compound 9, (E)-3-(2-(4-Fluorophenoxy)phenyl)-N-hydroxyacrylamide] has an IC50 (HDAC6) of 1000 to 10000 nM, an IC50 (HDAC8) of at most 100 nM and an IC50 (HDAC1) of 1000 to 10000 nM. For the same molecule, the GI50 (Jurkat cells) was 2000 nM.
Molecule O=C(/C=C/c1ccccc1Oc1ccncc1)NO [Compound 17, (E)-N-Hydroxy-3-(2-(pyridin-4-yloxy)phenyl)acrylamide] has an IC50 (HDAC6) of over 10000 nM, an IC50 (HDAC8) of at most 100 nM and an IC50 (HDAC1) of over 10000 nM.
O=C(/C=C/c1ccccc1Oc1cccc(F)c1)NO [Compound 14, (E)-3-(2-(3-Fluorophenoxy)phenyl)-N-hydroxyacrylamide] was tested, and the IC50 (HDAC6) was 1000 to 10000 nM, the IC50 (HDAC8) was at most 100 nM and the IC50 (HDAC1) was 1000 to 10000 nM. The GI50 (Jurkat cells) was 3580 nM.
In the case of CN1CCN(CCOc2ccc(/C=C/C(=O)NO)c(Oc3cccc(Cl)c3)c2)CC1 [Compound 68, (E)-3-(2-(3-chlorophenoxy)-4-(2-(4-methylpiperazin-1-yl)ethoxy)phenyl)-N-hydroxyacrylamide], the IC50 (HDAC6) is reported as 100 to 1000 nM, the IC50 (HDAC8) is reported as at most 100 nM and the IC50 (HDAC1) is reported as 1000 to 10000 nM.
O=C(/C=C/c1ccccc1OC1CCN(C(=O)c2ccccc2)CC1)NO [Compound 20, (E)-3-(2-(1-benzoylpiperidin-4-yloxy)phenyl)-N-hydroxyacrylamide] gave an IC50 (HDAC6) of 1000 to 10000 nM, an IC50 (HDAC8) of at most 100 nM and an IC50 (HDAC1) of 1000 to 10000 nM. It also gave a GI50 (Jurkat cells) of 9700 nM.

— US20150045367A1, “CINNAMIC ACID HYDROXYAMIDES AS INHIBITORS OF HISTONE DEACETYLASE 8” (PHARMACYCLICS, INC., priority 2011, published 2015)
